≈ marks a conversion by molar mass, not a printed value. Like-named read-outs stand apart in the source and are kept apart here. A value given as a limit tells only on which side of the number the result lay.

In assay [1] the test system is Escherichia coli Vogel. In words: in vivo antibacterial activity in mice infected with E. coli. Also on record: species or system female mice. The following applies: sc, 168 h. As for the experimental part:
(§1) The in vivo antibacterial activity of the compounds of the invention was determined in female mice, 18-20 grams each, by the following procedure:
(§2) Aqueous solutions of the compounds to be tested were prepared by dissolving the free acid form in dilute sodium hydroxide and diluting the solution with distilled water to the desired volume.
(§3) Cultures of Escherichia coli Vogel prepared in brain heart infusion broth, cultures of Klebsiella pneumoniae 39645 grown in tryptose phosphate broth with 5% rabbit serum diluted in the same broth were used to infect the mice as follows:
E coli: mice were inoculated intraperitoneally with 0.5 ml of the bacterial test inoculum (1.87×10^7 and 5×10^6 cells/ml respectively).
Mice infected with E. coli were medicated once (0.5 ml) one-half hour post infection, the test compound being administered by the subcutaneous (s.c.) route. Deaths were recorded daily for seven days.
(§4) Groups of ten animals each for four or five dose levels were thus treated and the number of survivors in each group recorded. The fifty percent protective dose values (PD50) were then calculated.

A further assay deals with Proteus vulgaris 9920. The experiment in a line: in vitro antibacterial activity, serial dilution (MIC). In kind it is cell-based. The method, then: (§5) The in vitro antibacterial activity was determined by conventional serial dilution procedures. Bacterial cultures were grown in tryptose phosphate broth or brain heart infusion broth (containing heat-inactivated normal horse serum for tests with S. pyogenes) overnight at 37° C. and subsequently diluted in double strength broth to provide bacterial inocula of about 2×10^5 cells/ml. Aqueous solutions of the compounds of the invention were prepared by dissolving the free acid form in 0.5 N sodium hydroxide. The solutions were diluted with sterile distilled water to 100 mcg/ml of compound in terms of the free acid. Serial two-fold dilutions of the compound stock solutions were prepared in water and 0.5 ml of each dilution was transferred to sets of tubes, one set for each bacterial inoculum. Each tube was then inoculated with 0.5 ml of the appropriate culture, resulting in a final bacterial concentration of about 1×10^5 cells/ml. The minimal inhibitory concentration (MIC), defined as the lowest concentration of the test compound to inhibit visible bacterial growth, was recorded after 18-20 hours of static incubation at 37° C.

The test system of assay [2] is Escherichia coli Vogel. The assay is described as above. In kind it is cell-based. As for the experimental part:
as §5

The next assay deals with Proteus mirabilis MGH-1. The description is as above. The following applies: MGH1. In kind it is cell-based. As for the experimental part:
as §5

Assay [3] relates to Klebsiella pneumoniae 39645. The assay is described as above. Type of assay: cell-based. The method, then: as §5
The subject of assay [4] is Klebsiella pneumoniae 39645. The experiment in a line: in vivo antibacterial activity in mice infected with K. pneumoniae. As to conditions: Klebsiella pneumoniae, 39645, sc, 336 h; K. pneumoniae intramuscularly; s.c. 17 h and 1 h preinfection, 6 h postinfection, twice a day next three days; fourteen days; read-out: Protective Dose (PD50). Also on record: species or system female mice. The method, then:
as §1, §2, §3
K. pneumoniae: mice were inoculated intramuscularly in the right hind leg with 0.2 ml of the bacterial test inoculum (2.05×10^4 cells/ml).
Mice infected with K. pneumoniae were medicated at the following times: seventeen hours and one hour preinfection, six hours postinfection and twice a day for the next three days. The test compound was administered by the subcutaneous (0.2 ml) route. Deaths were recorded daily for fourteen days.
as §4

The test system of assay [5] is Staphylococcus aureus Smith. The experiment in a line: in vitro antibacterial activity, serial dilution (MIC). Type of assay: cell-based. As to conditions: 18-20 hours, 37° C., about 1×10^5 cells/ml, read-out: Minimal Inhibitory Concentration. As for the experimental part:
as §5

The test system of assay [6] is Streptococcus pyogenes C203. The assay is described as above. In kind it is cell-based. The following applies: broth with heat-inactivated normal horse serum, 18-20 hours, 37° C., read-out: Minimal Inhibitory Concentration. As for the experimental part:
as §5

Assay [7] concerns Pseudomonas aeruginosa MGH-2. The assay is described as above. As to conditions: MGH2, 18-20 hours, 37° C., about 1×10^5 cells/ml, read-out: Minimal Inhibitory Concentration. In kind it is cell-based. As for the experimental part:
as §5

The mark [8] stands for this setting: Proteus vulgaris, 9920, P. vulg., in vitro, read-out: MIC.
The mark [9] stands for this setting: Escherichia coli, E. coli, in vitro, read-out: MIC.
[10] abbreviates: Proteus mirabilis, P. mirab., in vitro, read-out: MIC.
[11] abbreviates: E. coli intraperitoneally, single s.c. dose one-half hour post infection, seven days, read-out: Protective Dose (PD50).
Setting [12] is: Proteus vulgaris 9920, 18-20 hours, 37° C., about 1×10^5 cells/ml, read-out: Minimal Inhibitory Concentration.
The mark [13] stands for this setting: Escherichia coli Vogel, 18-20 hours, 37° C., about 1×10^5 cells/ml, read-out: Minimal Inhibitory Concentration.
Setting [14] is: Proteus mirabilis MGH-1, 18-20 hours, 37° C., about 1×10^5 cells/ml, read-out: Minimal Inhibitory Concentration.
Where [15] appears, read: Klebsiella pneumoniae 39645, 18-20 hours, 37° C., about 1×10^5 cells/ml, read-out: Minimal Inhibitory Concentration.

For the compound `CN(C=O)n1cc(C(=O)O)c(=O)c2cc3c(cc21)OCO3` [Example 7, 5-[(Formyl)methylamino]5,8-dihydro-8-oxo-1,3-dioxolo[4,5-g]-quinoline-7-carboxylic acid], the ED50 in the assay with Escherichia coli Vogel [1] (in vivo against E. coli, read-out: PD50) was found to be 40 mg/kg. In addition, the MIC worked out at 15.6 µg/mL (≈ 53.8 µM) in the assay with Proteus vulgaris 9920 (setting [8]); 31.3 µg/mL (≈ 108 µM) in the assay with Escherichia coli Vogel [2] (setting [9]); 7.8 µg/mL (≈ 26.9 µM) in the assay with Proteus mirabilis MGH-1 (setting [10]); 15.6 µg/mL (≈ 53.8 µM) in assay [3] (Klebsiella pneumoniae, 39645, K. pneum., in vitro, read-out: MIC).

For the compound `Nn1cc(C(=O)O)c(=O)c2cc3c(cc21)OCO3` [Example 2, 5-Amino-5,8-dihydro-8-oxo-1,3-dioxolo[4,5-g]quinoline-7-carboxylic acid], the MIC was determined as 3.9 µg/mL (≈ 15.7 µM) with Proteus vulgaris 9920 (setting [8]), 7.8 µg/mL (≈ 31.4 µM) in the assay on Escherichia coli Vogel [2] (setting [9]) and 3.9 µg/mL (≈ 15.7 µM) in the assay with Proteus mirabilis MGH-1 (setting [10]).

Turning to `CCNn1cc(C(=O)O)c(=O)c2cc3c(cc21)OCO3` [Example 12, 5-(Ethylamino)-5,8-dihydro-8-oxo-1,3-dioxolo[4,5-g]quinoline-7-carboxylic acid], the ED50 in the assay on Escherichia coli Vogel [1] (setting [11]) worked out at 7 mg/kg; in assay [4] it was 50 mg/kg. In addition, the MIC with Proteus vulgaris 9920 (setting [12]) was 0.25 µg/mL (≈ 0.905 µM); with Escherichia coli Vogel [2] (setting [13]) it was 1 µg/mL (≈ 3.62 µM); in [5], greater than 15.6 µg/mL; in the assay on Proteus mirabilis MGH-1 (setting [14]) it was 1.95 µg/mL (≈ 7.06 µM); in [3] (setting [15]) it was 1.95 µg/mL (≈ 7.06 µM); in assay [6], greater than 62.5 µg/mL. Moreover, in assay [7], the MIC is greater than 62.5 µg/mL.

As to `CCCNn1cc(C(=O)O)c(=O)c2cc3c(cc21)OCO3` [Example 14, 5,8-Dihydro-8-oxo-5-(propylamino)-1,3-dioxolo[4,5-g]quinoline-7-carboxylic acid], the ED50 with Escherichia coli Vogel [1] (setting [11]) is 141 mg/kg; in [4] it was greater than 200 mg/kg. In addition, the MIC was 3.9 µg/mL (≈ 13.4 µM) in the assay with Proteus vulgaris 9920 (setting [12]); greater than 7.8 µg/mL in the assay on Escherichia coli Vogel [2] (setting [13]); greater than 62.5 µg/mL in assay [5]; greater than 7.8 µg/mL with Proteus mirabilis MGH-1 (setting [14]); greater than 7.8 µg/mL in [3] (setting [15]); greater than 62.5 µg/mL in [6]. Also, in [7], the MIC is greater than 62.5 µg/mL.

For `CNn1cc(C(=O)O)c(=O)c2cc3c(cc21)OCO3` [Example 9, 5,8-Dihydro-5-(methylamino)-8-oxo-1,3-dioxolo[4,5-g]quinoline-7-carboxylic acid], the ED50 in the assay on Escherichia coli Vogel [1] (setting [11]) came to 3.3 mg/kg; in [4] it was 28 mg/kg. The MIC with Proteus vulgaris 9920 (setting [12]) is 0.125 µg/mL (≈ 0.477 µM); in the assay on Escherichia coli Vogel [2] (setting [13]), 0.25 µg/mL (≈ 0.953 µM); in assay [5] it was 3.9 µg/mL (≈ 14.9 µM); in the assay with Proteus mirabilis MGH-1 (setting [14]) it was 0.25 µg/mL (≈ 0.953 µM); in [3] (setting [15]) it was 1 µg/mL (≈ 3.81 µM); in assay [6], greater than 500 µg/mL. Moreover, the MIC in [7] was determined as 15.6 µg/mL (≈ 59.5 µM).

The values above are taken from patent US4439436A, “1,3-Dioxolo(4,5-G)quinoline compounds” (Sterling Drug Inc., priority 1982, dated 1984).
